Assay results taken from the NIST ThermoML archive (doi:10.1016/j.jct.2003.11.008).

How the values were obtained:
[1] = excess molar enthalpy (molar enthalpy of mixing); xn = mol fraction of the nth substance listed; details: 318.15 K, 101.3 kPa, Liquid
[2] = xn = mol fraction of the nth substance listed; details: 318.15 K, 101.3 kPa, Liquid

CCCCCCCCCCCCCCC [pentadecane] + CCCCOC(C)=O
Details | excess molar enthalpy [kcal/mol] | excess molar volume [m3/mol]
[1], x2 = 0.0884 | 0.0988 | –
[1], x2 = 0.1775 | 0.179 | –
[1], x2 = 0.2593 | 0.249 | –
[1], x2 = 0.3266 | 0.29 | –
[1], x2 = 0.3936 | 0.322 | –
[1], x2 = 0.4468 | 0.341 | –
[1], x2 = 0.4996 | 0.353 | –
[1], x2 = 0.5472 | 0.356 | –
[1], x2 = 0.5896 | 0.353 | –
[1], x2 = 0.6217 | 0.345 | –
[1], x2 = 0.6332 | 0.341 | –
[1], x2 = 0.6756 | 0.322 | –
[1], x2 = 0.7198 | 0.298 | –
[1], x2 = 0.7661 | 0.269 | –
[1], x2 = 0.8132 | 0.232 | –
[1], x2 = 0.8631 | 0.187 | –
[1], x2 = 0.9114 | 0.132 | –
[1], x2 = 0.9607 | 0.0673 | –
[2], x2 = 0.1004 | – | 3.55e-07
[2], x2 = 0.1982 | – | 6.25e-07
[2], x2 = 0.2765 | – | 7.99e-07
[2], x2 = 0.3418 | – | 9.17e-07
[2], x2 = 0.417 | – | 9.97e-07
[2], x2 = 0.4757 | – | 1.034e-06
[2], x2 = 0.5299 | – | 1.057e-06
[2], x2 = 0.5843 | – | 1.052e-06
[2], x2 = 0.6319 | – | 1.024e-06
[2], x2 = 0.6767 | – | 9.8e-07
[2], x2 = 0.7173 | – | 9.26e-07
[2], x2 = 0.7606 | – | 8.62e-07
[2], x2 = 0.7836 | – | 8.17e-07
[2], x2 = 0.8619 | – | 5.97e-07
[2], x2 = 0.9208 | – | 3.91e-07
[2], x2 = 0.9647 | – | 1.72e-07

CCCCOC(C)=O [butyl ethanoate] + CCCCCCCCC
Details | excess molar enthalpy [kcal/mol] | excess molar volume [m3/mol]
[1], x1 = 0.0779 | 0.0816 | –
[1], x1 = 0.1485 | 0.146 | –
[1], x1 = 0.2301 | 0.2 | –
[1], x1 = 0.3059 | 0.237 | –
[1], x1 = 0.3775 | 0.261 | –
[1], x1 = 0.442 | 0.271 | –
[1], x1 = 0.5 | 0.272 | –
[1], x1 = 0.5519 | 0.266 | –
[1], x1 = 0.5963 | 0.256 | –
[1], x1 = 0.6435 | 0.243 | –
[1], x1 = 0.6936 | 0.227 | –
[1], x1 = 0.7461 | 0.203 | –
[1], x1 = 0.8009 | 0.172 | –
[1], x1 = 0.8533 | 0.134 | –
[1], x1 = 0.9067 | 0.0904 | –
[1], x1 = 0.9568 | 0.0449 | –
[2], x1 = 0.0761 | – | 2.63e-07
[2], x1 = 0.1325 | – | 4.29e-07
[2], x1 = 0.1914 | – | 5.63e-07
[2], x1 = 0.2533 | – | 6.69e-07
[2], x1 = 0.3151 | – | 7.6e-07
[2], x1 = 0.3713 | – | 8.09e-07
[2], x1 = 0.4229 | – | 8.37e-07
[2], x1 = 0.4749 | – | 8.55e-07
[2], x1 = 0.5222 | – | 8.55e-07
[2], x1 = 0.5765 | – | 8.31e-07
[2], x1 = 0.6275 | – | 7.98e-07
[2], x1 = 0.6744 | – | 7.55e-07
[2], x1 = 0.7062 | – | 7.07e-07
[2], x1 = 0.8023 | – | 5.38e-07
[2], x1 = 0.8838 | – | 3.43e-07
[2], x1 = 0.9444 | – | 1.75e-07

CCCCCCCCCCCCCCC [pentadecane] + CCCOC(C)=O
Details | excess molar enthalpy [kcal/mol] | excess molar volume [m3/mol]
[1], x2 = 0.1056 | 0.137 | –
[1], x2 = 0.1903 | 0.23 | –
[1], x2 = 0.2687 | 0.303 | –
[1], x2 = 0.3385 | 0.354 | –
[1], x2 = 0.4042 | 0.389 | –
[1], x2 = 0.4596 | 0.409 | –
[1], x2 = 0.5101 | 0.421 | –
[1], x2 = 0.5521 | 0.421 | –
[1], x2 = 0.5935 | 0.416 | –
[1], x2 = 0.634 | 0.405 | –
[1], x2 = 0.674 | 0.389 | –
[1], x2 = 0.715 | 0.369 | –
[1], x2 = 0.7583 | 0.339 | –
[1], x2 = 0.8027 | 0.301 | –
[1], x2 = 0.8473 | 0.254 | –
[1], x2 = 0.8921 | 0.193 | –
[1], x2 = 0.9369 | 0.126 | –
[1], x2 = 0.9732 | 0.0589 | –
[2], x2 = 0.0878 | – | 3.42e-07
[2], x2 = 0.1416 | – | 5.35e-07
[2], x2 = 0.2112 | – | 7.4e-07
[2], x2 = 0.3035 | – | 9.75e-07
[2], x2 = 0.3749 | – | 1.102e-06
[2], x2 = 0.4446 | – | 1.188e-06
[2], x2 = 0.5048 | – | 1.254e-06
[2], x2 = 0.5631 | – | 1.259e-06
[2], x2 = 0.6193 | – | 1.238e-06
[2], x2 = 0.6657 | – | 1.213e-06
[2], x2 = 0.742 | – | 1.093e-06
[2], x2 = 0.8073 | – | 9.36e-07
[2], x2 = 0.8769 | – | 6.9e-07
[2], x2 = 0.9297 | – | 4.51e-07
[2], x2 = 0.9673 | – | 2.26e-07
